In the NIST ThermoML archive (doi:10.1021/je049824c):
± gives the expanded uncertainty stated by the source.

Columns and labels:
[1] = excess molar enthalpy (molar enthalpy of mixing); xn = mol fraction of the nth substance listed; conditions: 14100 kPa, Liquid, Flow calorimetry
[2] = Liquid, Closed cell (Static) method

COC(=O)C(C)O (stereo not drawn) [methyl 2-hydroxypropanoate] + O
excess molar enthalpy [kcal/mol], [1]
Conditions | 303.15 K | 333.15 K
x2 = 0.0632 | 0.004 ± 0.000215 | -0.00394 ± 0.000215
x2 = 0.1202 | 0.00357 ± 0.000213 | -0.00928 ± 0.000311
x2 = 0.219 | -0.000437 ± 0.000189 | -0.0211 ± 0.000526
x2 = 0.3016 | -0.00462 ± 0.000222 | -0.0288 ± 0.000693
x2 = 0.3718 | -0.00866 ± 0.000287 | -0.0345 ± 0.000813
x2 = 0.4321 | -0.0134 ± 0.000382 | -0.0398 ± 0.000908
x2 = 0.5083 | -0.0221 ± 0.00055 | -0.0479 ± 0.00108
x2 = 0.5711 | -0.0295 ± 0.000693 | -0.0552 ± 0.00124
x2 = 0.6397 | -0.0384 ± 0.000884 | -0.0643 ± 0.00143
x2 = 0.7195 | -0.0493 ± 0.00112 | -0.0756 ± 0.00167
x2 = 0.7803 | -0.0572 ± 0.00129 | -0.0839 ± 0.00184
x2 = 0.8419 | -0.0642 ± 0.00143 | -0.0901 ± 0.00198
x2 = 0.8988 | -0.0647 ± 0.00143 | -0.0891 ± 0.00196
x2 = 0.9411 | -0.0552 ± 0.00124 | -0.0767 ± 0.0017
x2 = 0.9796 | -0.0288 ± 0.000693 | -0.0394 ± 0.000908

COC(=O)C(C)O (stereo not drawn) [methyl 2-hydroxypropanoate]
[2]
Conditions | vapor or sublimation pressure [kPa]
283.15 K | 0.17 ± 0.04
293.15 K | 0.43 ± 0.04
303.15 K | 0.87 ± 0.04
